# Laboratory results published in US20230087342A1, “AZEPANE DERIVATIVE” (Nippon Chemiphar Co., Ltd., priority 2019, published 2023).
# Like-named read-outs stand apart in the source and are kept apart here.
# What was measured:
# [1] = target: T1, human κ opioid receptors (Homo sapiens, UniProt P41145); assay: Opioid receptor function test (Lance Ultra cAMP kit, agonist activity); assay type: cell-based; conditions: CHO cells expressing human κ opioid receptors, 10 μM forskolin, 30 minutes
# T1 construct: host or cells: CHO cells
# T1 sequence (P41145 whole entry): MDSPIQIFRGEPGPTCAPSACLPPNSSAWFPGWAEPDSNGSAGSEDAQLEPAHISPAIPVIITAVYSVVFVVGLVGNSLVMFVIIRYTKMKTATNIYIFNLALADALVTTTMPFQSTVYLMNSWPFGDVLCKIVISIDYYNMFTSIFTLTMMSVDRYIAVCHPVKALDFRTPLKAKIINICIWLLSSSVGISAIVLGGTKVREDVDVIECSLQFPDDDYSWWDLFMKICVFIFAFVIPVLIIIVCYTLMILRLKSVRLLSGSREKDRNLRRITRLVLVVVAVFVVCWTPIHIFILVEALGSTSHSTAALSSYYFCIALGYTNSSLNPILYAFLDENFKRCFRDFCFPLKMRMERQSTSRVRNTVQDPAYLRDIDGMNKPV
# In short: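 CHO cells expressing human κ opioid receptor incubated 30 min with test compound (10^−14 to 10^−7 M) and 10 μM forskolin in HSS/5 mM HEPES pH 7.4 with 0.5 mM IBMX and 0.1% SA. cAMP measured by TR-FRET (Lance Ultra) 1 h after detection reagent addition.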
# [2] = Metabolic stability test; assay type: in vitro ADME; conditions: human liver microsomes, 0 to 30 minutes; a hydrochloride was used
# Description: To determine the unchanged product-residual ratio of the test compound in the reaction sample, human liver microsomes and the test compound were reacted for a predetermined time (0 to 30 minutes). The unchanged product-residual ratio at a reaction time of 0 hours was considered 100%, the residual ratio after incubation was log-linear plotted with respect to the time, a regression line (y=100 e^−kt, k=slope of the line: elimination rate constant) was determined, and the metabolic clearance CLint (mL/min/kg) was calculated using the following formula.
# CLint*=k (−min)×45 (mg MS protein/g liver)×21 (g liver/kg)/MS protein (mg MS protein/mL)
# *: Yamazaki S.; Skaptason J.; Romero D, Vekich S.; Jones HM.; Tan W.; Wilner KD.; Koudriakova T. Drug Metab. Dispos. 2011 March; 39 (3): 383-393.
# [3] = tested on: ICR male mice; assay: Mouse acetic acid writhing test; assay type: in vivo; conditions: hydrochloride; for ED50: Mus musculus, read-out: ED50 value (writhing suppressing effect)
# Description: Mouse Acetic Acid Writhing Test
# The analgesic effect of the test compound was evaluated by an acetic acid writhing test. For the experiment, ICR male mice were used and acclimated to a plastic open field for 30 minutes before starting the test. After acclimation, the mice were administered with the test compound (30 to 3000 μg/kg) or water for injection subcutaneously or orally, and once returned to the open field. Thirty minutes after the administration of the test compound, a 0.6% aqueous acetic acid solution was additionally administered to the same mice by intraperitoneal administration. From 10 minutes after administration of the 0.6% aqueous acetic acid solution, the number of writhing reactions (writhing reactions in which the mouse stretches while pressing the abdominal cavity against the floor) induced in the mice was measured for 10 minutes, and the number of writhing reactions was compared with that of a control group (water for injection-administrated group) to evaluate the analgesic effect of the test compound.
Structure (SMILES),EC50 [1] [nM],CLint scaled [2] [mL/min/kg],ED50 ([3]; Oral) [mg/kg],"Writhing suppression rate ([3]; Oral, dose 30 (μg/kg))","Writhing suppression rate ([3]; Oral, dose 300 (μg/kg))","Writhing suppression rate ([3]; Oral, dose 1000 (μg/kg))","ED50 ([3]; sc, Subcutaneous) [mg/kg]","Writhing suppression rate ([3]; Subcutaneous, dose 30 (μg/kg))","Writhing suppression rate ([3]; Subcutaneous, dose 300 (μg/kg))"
"O=C(Cc1ccccn1)N1CC[C@]23CCN(CC4CC4)[C@H](Cc4ccc(O)cc42)[C@]3(O)CC1 [Example 22, 1-((5aS,6R,11bR)-14-(cyclopropylmethyl)-5a,10-dihydroxy-1,2,5,5a,6,7-hexahydro-6,11b-(epiminoethano)naphtho[1,2-d]azepin-3(4H)-yl)-2-(pyridin-2-yl)ethan-1-one]",0.13,7.2,0.0152,+ (40 ≤ % <60: +),++ (60 ≤ % <80: ++),,,,
"Cc1cnn(CCN2CC[C@]34CCN(CC5CC5)[C@H](Cc5ccc(O)cc53)[C@]4(O)CC2)c1 [Example 50, (5aS,6R,11bS)-14-(cyclopropylmethyl)-3-(2-(4-methyl-1H-pyrazol-1-yl)ethyl)-2,3,4,5,6,7-hexahydro-6,11b-(epiminoethano)naphtho[1,2-d]azepine-5a,10(1H)-diol]",0.027,8.7,0.21,,+ (40 ≤ % <60: +),+++ (80 ≤ %: +++),,,
"Oc1ccc2c(c1)[C@@]13CCN(CCc4ccccn4)CC[C@@]1(O)[C@@H](C2)N(CC1CC1)CC3 [Example 77, (5aS,6R,11bS)-14-(cyclopropylmethyl)-3-(2-(pyridin-2-yl)ethyl)-2,3,4,5,6,7-hexahydro-6,11b-(epiminoethano)naphtho[1,2-d]azepine-5a,10(1H)-diol]",0.026,6.7,,,,,0.0125,+ (40 ≤ % <60: +),+++ (80 ≤ %: +++)
